Laboratory results taken from ChEMBL document CHEMBL3872259, “Synthesis, characterization, and in vitro SAR evaluation of N,N'-bis(arylmethyl)-C2-alkyl substituted imidazolium salts” (Bioorg Med Chem Lett, 2017).

What was measured:
[1] = Antiproliferative activity against human HOP62 cells assessed as cell growth at 10 uM measured after 48 hrs by sulforhodamine B assay relative to control; type: functional; conditions: HOP-62, 48 h, read-out: Activity
[2] = Growth inhibition of human EKVX cells measured after 48 hrs by sulforhodamine B assay; type: functional
[3] = Antiproliferative activity against human NCI-H226 cells assessed as cell growth at 10 uM measured after 48 hrs by sulforhodamine B assay relative to control; type: functional; conditions: NCI-H226, 48 h, read-out: Activity
[4] = Antiproliferative activity against human NCI-H322M cells assessed as cell growth at 10 uM measured after 48 hrs by sulforhodamine B assay relative to control; type: functional; conditions: read-out: Activity
[5] = Antiproliferative activity against human HCC827 cells assessed as reduction in cell viability measured after 72 hrs by MTT assay; type: functional, cell-based; conditions: HCC827, 72 h
[6] = Growth inhibition of human NCI-H522 cells measured after 48 hrs by sulforhodamine B assay; type: functional; conditions: NCI-H522, 48 h
[7] = Antiproliferative activity against human NCI-H460 cells assessed as cell growth at 10 uM measured after 48 hrs by sulforhodamine B assay relative to control; type: functional; conditions: NCI-H460, 48 h, read-out: Activity
[8] = Growth inhibition of human HOP62 cells measured after 48 hrs by sulforhodamine B assay; type: functional; conditions: HOP-62, 48 h
[9] = Growth inhibition of human NCI-H226 cells measured after 48 hrs by sulforhodamine B assay; type: functional; conditions: NCI-H226, 48 h
[10] = Antiproliferative activity against human NCI-H460 cells assessed as reduction in cell viability measured after 72 hrs by MTT assay; type: functional, cell-based; conditions: NCI-H460, 72 h
[11] = Antiproliferative activity against human HOP92 cells assessed as cell growth at 10 uM measured after 48 hrs by sulforhodamine B assay relative to control; type: functional; conditions: HOP-92, 48 h, read-out: Activity
[12] = Antiproliferative activity against human A549 cells assessed as reduction in cell viability measured after 72 hrs by MTT assay; type: functional, cell-based; conditions: A549, 72 h
[13] = Antiproliferative activity against human NCI-H23 cells assessed as cell growth at 10 uM measured after 48 hrs by sulforhodamine B assay relative to control; type: functional; conditions: NCI-H23, 48 h, read-out: Activity
[14] = Antiproliferative activity against human A549/ATCC cells assessed as cell growth at 10 uM measured after 48 hrs by sulforhodamine B assay relative to control; type: functional; conditions: A549, 48 h, read-out: Activity
[15] = Aqueous solubility of the compound; type: physicochemical; conditions: buffer
[16] = Growth inhibition of human HOP92 cells measured after 48 hrs by sulforhodamine B assay; type: functional; conditions: HOP-92, 48 h
[17] = Growth inhibition of human NCI-H23 cells measured after 48 hrs by sulforhodamine B assay; type: functional; conditions: NCI-H23, 48 h
[18] = Antiproliferative activity against human NCI-H1975 cells assessed as reduction in cell viability measured after 72 hrs by MTT assay; type: functional, cell-based; conditions: NCI-H1975, 72 h
[19] = Growth inhibition of human NCI-H322M cells measured after 48 hrs by sulforhodamine B assay; type: functional
[20] = Antiproliferative activity against human EKVX cells assessed as cell growth at 10 uM measured after 48 hrs by sulforhodamine B assay relative to control; type: functional; conditions: read-out: Activity
[21] = Antiproliferative activity against human NCI-H522 cells assessed as cell growth at 10 uM measured after 48 hrs by sulforhodamine B assay relative to control; type: functional; conditions: NCI-H522, 48 h, read-out: Activity
[22] = read-out: LC50 (the source's name)

CCc1n(Cc2ccc3ccccc3n2)cc[n+]1Cc1ccc2ccccc2n1.[Cl-]
growth at 10 µM [1]: 40.9%
GI50 [2]: 0.343 µM
TGI [2]: 41.5 µM
CC50 [2, 22]: > 100 µM
growth at 10 µM [3]: 48.4%
growth at 10 µM [4]: 73.1%
IC50 [5]: 9 µM
GI50 [6]: 0.0837 µM
LC50 (50% lethal concentration) [6]: 37.9 µM
TGI [6]: 1.49 µM
growth at 10 µM [7]: 34.8%
GI50 [8]: 4.66 µM
TGI [8]: 31.5 µM
CC50 [8, 22]: > 100 µM
GI50 [9]: 2.56 µM
TGI [9]: 30.8 µM
CC50 [9, 22]: > 100 µM
GI50 [10]: 0.511 µM
IC50 [10]: 6 µM
TGI [10]: 11.9 µM
CC50 [10, 22]: 45.7 µM
growth at 10 µM [11]: -11.8%
GI50 [12]: 5.27 µM
IC50 [12]: 11 µM
LC50 [12]: > 100 µM
TGI [12]: > 100 µM
growth at 10 µM [13]: 16%
growth at 10 µM [14]: 57.4%
solubility [15]: > 80 mM
GI50 [16]: 0.0183 µM
TGI [16]: 0.521 µM
CC50 [16, 22]: 19.7 µM
GI50 [17]: 0.275 µM
TGI [17]: 8.66 µM
CC50 [17, 22]: > 100 µM
IC50 [18]: < 1 µM
GI50 [19]: 6.33 µM
TGI [19]: 41.9 µM
CC50 [19, 22]: > 100 µM
growth at 10 µM [20]: 31.9%
growth at 10 µM [21]: -3.51%
